Assay results taken from patent US11964949B2, “Substituted phenyloxazolidinones for antimicrobial therapy” (priority 2015, dated 2024).
Values after ≈ are worked out from the molar mass of the structure shown. Like-named read-outs stand apart in the source and are kept apart here.

Columns and labels:
[1] = system: mitochondrial protein synthesis (MPS) in H9C2 cells; assay: In vitro assay for MPS inhibition (COX-1 / SDH-A ELISA in H9C2 cells); format: cell-based, rat; details: Rattus norvegicus, read-out: IC50 (μM) MPS inhibition
[2] = system: Mycobacterium tuberculosis H37Rv; assay: In vitro assay for antimicrobial susceptibility (microplate Alamar blue, MIC); format: cell-based; details: Mycobacterium tuberculosis, read-out: MIC (μg/mL) against H37Rv
[3] = 120 h, H9C2 cells, 5 days incubation
[4] = M. tuberculosis H37Rv, 7H9 broth, Alamar blue

| Compound | IC50 [1, 3] | MIC [2, 4] | IC50 ([1]; H9c2, 120 h) | MIC ([2]; H37RV) |
| --- | --- | --- | --- | --- |
| CS(=O)(=O)NC[C@H]1CN(c2cc(F)c(N3CC4(CSC4)C3)c(F)c2)C(=O)O1 [OTB-516-2A] | > 100 µM | 0.05 µg/mL (≈ 0.119 µM) |  |  |
| O=C(NC[C@H]1CN(c2cc(F)c(N3CC4(COC4)C3)c(F)c2)C(=O)O1)C1CC1 [OTB-233, (S)—N-((3-(3,5-Difluoro-4-(2-oxa-6-azaspiro[3.3]heptan-6-yl)phenyl)-2-oxo-oxazolidin-5-yl)methyl)cyclopropanecarboxamide] | 8.4 to 50 µM | 0.36 to 1 µg/mL (≈ 0.915 to 2.54 µM) |  |  |
| CC(=O)NC[C@H]1CN(c2cc(F)c(N3[C@@H]4CC[C@H]3C[S+]([O-])C4)c(F)c2)C(=O)O1 (stereo partly drawn) [OTB-514, N-(((5S)-3-(3,5-Difluoro-4-((1R,5S)-3-oxido-3-thia-8-azabicyclo[3.2.1]octan-8-yl)phenyl)-2-oxo-oxazolidin-5-yl)methyl) acetamide] |  |  | 25 µM | 0.5 µg/mL (≈ 1.21 µM) |
| O=C(NC[C@H]1CN(c2ccc(N3[C@@H]4CC[C@H]3CSC4)c(F)c2)C(=O)O1)C1CC1 [OTB-506, N—(((S)-3-(4-((1R,5S)-3-Thia-8-azabicyclo[3.2.1]octan-8-yl)-3-fluorophenyl)-2-oxo-oxazolidin-5-yl)methyl)cyclopropanecarboxamide] |  |  | 8 µM | 1 µg/mL (≈ 2.47 µM) |
| O=C1O[C@@H](Cn2cncn2)CN1c1ccc(N2CCCSCC2)c(F)c1 [OTB-119, (R)-5-[(1H-1,2,4-Triazol-1-yl)methyl]-3-[3-fluoro-4-(1,4-thiazepan-4-yl)phenyl]oxazolidin-2-one] | > 100 µM | 0.456 µg/mL (≈ 1.21 µM) |  |  |
| CC(=O)NC[C@H]1CN(c2ccc(N3CC4(CSC4)C3)c(F)c2)C(=O)O1 [OTB-261, (S)—N-((3-(3-Fluoro-4-(2-thia-6-azaspiro[3.3]heptan-6-yl)phenyl)-2-oxo-oxazolidin-5-yl)methyl)acetamide] | 2 µM | 0.12 µg/mL (≈ 0.328 µM) |  |  |
| CCCC(=O)OC[C@H]1CN(c2ccc(N3CCCSCC3)c(F)c2)C(=O)O1 [OTB-108, (R)-[3-[3-Fluoro-4-(1,4-thiazepan-4-yl)phenyl]-2-oxo-5-oxazolidinyl]methyl butyrate] | > 100 µM | 0.125 µg/mL (≈ 0.315 µM) |  |  |
| CCCC(=O)NC[C@H]1CN(c2ccc(N3CCC[S+]([O-])CCC3)c(F)c2)C(=O)O1 [OBD-004, (S)—N-((3-(3-Fluoro-4-(1-oxido-1,5-thiazocan-5-yl)phenyl)-2-oxooxazolidin-5-yl)methyl)butyramide] | 15.8 µM | 3.34 µg/mL (≈ 7.84 µM) |  |  |
| O=C(NC[C@H]1CN(c2cc(F)c(N3CC4CCC(C3)O4)c(F)c2)C(=O)O1)C1CCC1 [OBD-253] | 65 µM | 0.53 µg/mL (≈ 1.26 µM) |  |  |
| COC(=O)NC[C@H]1CN(c2ccc(N3[C@@H]4CC[C@H]3CSC4)c(F)c2)C(=O)O1 [OTB-237, Methyl (((S)-3-(4-((1R,5S)-3-thia-8-azabicyclo[3.2.1]octan-8-yl)-3-fluorophenyl)-2-Oxo-oxazolidin-5-yl)methyl)carbamate] |  |  | 15 to 23 µM | 0.03 to 0.11 µg/mL (≈ 0.0759 to 0.278 µM) |
| O=C(NC[C@H]1CN(c2cc(F)c(N3CCCSCC3)c(F)c2)C(=O)O1)C1CCC1 [OTB-409] | 8.51 µM | 0.477 µg/mL (≈ 1.12 µM) |  |  |
| NC[C@H]1CN(c2ccc(N3C4CCC3CSC4)c(F)c2)C(=O)O1 [OBD-081, (5S)-3-(4-(3-thia-8-aza-bicyclo[3.2.1]octan-8-yl)-3-fluorophenyl)-5-(aminomethyl)oxazolidin-2-one] |  |  | 77 µM | 0.47 µg/mL (≈ 1.39 µM) |
| CNC(=O)OC[C@H]1CN(c2cc(F)c(N3CC4(C3)C[S+]([O-])C4)c(F)c2)C(=O)O1 [OTB-516-4B] | > 100 µM |  |  | 4.7 µg/mL (≈ 11.3 µM) |
| CC(=O)NC[C@H]1CN(c2ccc(N3CCCSCCC3)c(F)c2)C(=O)O1 [OTB-114, (S)—N-((3-(3-fluoro-4-(1,5-thiazocan-5-yl)phenyl)-2-oxooxazolidin-5-yl)methyl)acetamide] | 28 to 29 µM | 0.05 to 0.11 µg/mL (≈ 0.131 to 0.288 µM) |  |  |
| CCCCS(=O)(=O)NC[C@H]1CN(c2ccc(N3CCCSCC3)c(F)c2)C(=O)O1 [OTB-116, (R)—N-[[3-(3-Fluoro-4-(1,4-thiazepan-4-yl)phenyl)-2-oxo-oxazolidin-5-yl]methyl]butane-1-sulfonamide] | > 100 µM | 3.81 µg/mL (≈ 8.56 µM) |  |  |
| CCCC(=O)NC[C@H]1CN(c2ccc(N3[C@@H]4CC[C@H]3C[S+]([O-])C4)c(F)c2)C(=O)O1 (stereo partly drawn) [OBD-017, N-(((5S)-3-(3-Fluoro-4-((1R,5S)-3-oxido-3-thia-8-azabicyclo[3.2.1]octan-8-yl)phenyl)-2-oxooxazolidin-5-yl)methyl)butyramide] |  |  | 41 µM | 5.8 to 6.3 µg/mL (≈ 13.7 to 14.9 µM) |
| O=C1O[C@@H](Cn2ccnn2)CN1c1ccc(N2CCCSCC2)c(F)c1 [OTB-107, (R)-5-[(1H-1,2,3-Triazol-1-yl)methyl]-3-[3-fluoro-4-(1,4-thiazepan-4-yl)phenyl]oxazolidin-2-one] | 84.9 µM | 0.03 µg/mL (≈ 0.0795 µM) |  |  |

| Compound | IC50 [1, 3] | MIC [2, 4] | IC50 ([1]; H9c2, 120 h) | MIC ([2]; H37RV) |
| --- | --- | --- | --- | --- |
| COC(=O)NC[C@H]1CN(c2ccc(N3C4CCC3C[S+]([O-])C4)c(F)c2)C(=O)O1 (some centres unmarked) [OTB-518] |  |  | 73 µM | 3.5 µg/mL (≈ 8.51 µM) |
| O=C1O[C@@H](Cn2nccn2)CN1c1ccc(N2CCC[S+]([O-])CC2)c(F)c1 (stereo partly drawn) [OTB-138, (5R)-5-((2H-1,2,3-Triazol-2-yl)methyl)-3-(3-fluoro-4-(1-oxido-1,4-thiazepan-4-yl)phenyl)oxazolidin-2-one] | > 100 µM | 7.57 µg/mL (≈ 19.2 µM) |  |  |
| COC(=O)NC[C@H]1CN(c2cc(F)c(N3CC4(C3)C[S+]([O-])C4)c(F)c2)C(=O)O1 [OTB-253] | 10 µM | 0.7 µg/mL (≈ 1.69 µM) |  |  |
| O=C(NC[C@H]1CN(c2ccc(N3CCCSCC3)c(F)c2)C(=O)O1)c1ccco1 [OTB-111, (S)—N-[(3-[3-Fluoro-4-(1,4-thiazepan-4-yl)phenyl]-2-oxo-oxazolidin-5-yl)methyl]furan-2-carboxamide] | 60.3 µM | 0.125 µg/mL (≈ 0.298 µM) |  |  |
| CC(C)(C)C(=O)NC[C@H]1CN(c2ccc(N3CCCSCC3)c(F)c2)C(=O)O1 [OTB-115, (S)—N-[[3-(3-Fluoro-4-(1,4-thiazepan-4-yl)phenyl)-2-oxo-oxazolidin-5-yl]methyl]pivalamide] | > 100 µM | 3.73 µg/mL (≈ 9.12 µM) |  |  |
| CC(C)(C)C(=O)NC[C@H]1CN(c2ccc(N3CCCSCCC3)c(F)c2)C(=O)O1 [OTB-121, (S)—N-[[3-(3-Fluoro-4-(1,5-thiazocan-5-yl)phenyl)-2-oxo-oxazolidin-5-yl]methyl]pivalamide] | 17.6 µM | 2.79 µg/mL (≈ 6.58 µM) |  |  |
| NC[C@H]1CN(c2ccc(N3CC4CCC(C3)O4)c(F)c2)C(=O)O1 [OBD-113, 3-(4-(8-oxa-3-aza-bicyclo[3.2.1]octan-3-yl)-3-fluorophenyl)-5-(aminomethyl)oxazolidin-2-one] | > 100 µM | 0.39 µg/mL (≈ 1.21 µM) |  |  |
| O=C1O[C@@H](Cn2ccnn2)CN1c1cc(F)c(N2CC3(C2)C[S+]([O-])C3)c(F)c1 [OTB-522] | 38 µM | 1 µg/mL (≈ 2.44 µM) |  |  |
| CCCC(=O)NC[C@H]1CN(c2ccc(N3CCC[S+]([O-])CC3)c(F)c2)C(=O)O1 (stereo partly drawn) [OBD-006, N-(((5S)-3-(3-Fluoro-4-(1-oxido-1,4-thiazepan-4-yl)phenyl)-2-oxooxazolidin-5-yl)methyl)butyramide] | 7.49 µM | 0.49 µg/mL (≈ 1.19 µM) |  |  |
| CCCC(=O)NC[C@H]1CN(c2cc(F)c(N3C4CCC3C[S+]([O-])C4)c(F)c2)C(=O)O1 (some centres unmarked) [OBD-242] |  |  | > 100 µM | 0.61 µg/mL (≈ 1.38 µM) |
| O=C(NC[C@H]1CN(c2cc(F)c(N3[C@@H]4CC[C@H]3C[S+]([O-])C4)c(F)c2)C(=O)O1)C1CCC1 (stereo partly drawn) [OTB-513, N-(((5S)-3-(3,5-Difluoro-4-((1R,5S)-3-oxido-3-thia-8-azabicyclo[3.2.1]octan-8-yl)phenyl)-2-oxo-oxazolidin-5-yl)methyl)cyclobutanecarboxamide] |  |  | 13 µM | 1.66 µg/mL (≈ 3.67 µM) |
| O=C(NC[C@H]1CN(c2cc(F)c(N3CC4CCC(C3)O4)c(F)c2)C(=O)O1)C1CC1 [OBD-252] | 32.3 µM | 0.47 µg/mL (≈ 1.15 µM) |  |  |
| COC(=O)NC[C@H]1CN(c2cc(F)c(N3CCCSCC3)c(F)c2)C(=O)O1 [OTB-410, Methyl (S)-((3-(3,5-difluoro-4-(1,4-thiazepan-4-yl)phenyl)-2-oxo-oxazolidin-5-yl)methyl)carbamate] | > 100 µM | 0.125 µg/mL (≈ 0.311 µM) |  |  |
| O=C1O[C@@H](Cn2nccn2)CN1c1ccc(N2CCCSCC2)c(F)c1 [OTB-106, (R)-5-[(2H-1,2,3-Triazol-2-yl)methyl]-3-[3-fluoro-4-(1,4-thiazepan-4-yl)phenyl]oxazolidin-2-one] | > 100 µM | 2 µg/mL (≈ 5.3 µM) |  |  |
| O=C(NC[C@H]1CN(c2cc(F)c(N3CC4(COC4)C3)c(F)c2)C(=O)O1)C1CCC1 [OTB-240, (S)—N-((3-(3,5-Difluoro-4-(2-oxa-6-azaspiro[3.3]heptan-6-yl)phenyl)-2-oxo-oxazolidin-5-yl)methyl)cyclobutanecarboxamide] | 19 to 67 µM | 0.24 to 0.6 µg/mL (≈ 0.589 to 1.47 µM) |  |  |
| CS(=O)(=O)NC[C@H]1CN(c2ccc(N3CC4(C3)C[S+]([O-])C4)c(F)c2)C(=O)O1 [OTB-260-2B] | > 100 µM | 0.49 µg/mL (≈ 1.17 µM) |  |  |
| O=C1O[C@@H](Cn2ccnn2)CN1c1ccc(N2CC3(C2)C[S+]([O-])C3)c(F)c1 [OTB-247] | 10 µM | 1.2 to 1.4 µg/mL (≈ 3.07 to 3.58 µM) |  |  |
